Here are results for 4 compounds from patent US20090005417A1, “Substituted Indazolyl Sulfonamide and 2,3-Dihydro-Indolyl Sulfonamide Compounds, their Preparation and Use in Medicaments” (LABORATORIOS DEL DR. ESTEVE S.A., priority 2004, published 2009).

T1 sequence (P50406 whole entry): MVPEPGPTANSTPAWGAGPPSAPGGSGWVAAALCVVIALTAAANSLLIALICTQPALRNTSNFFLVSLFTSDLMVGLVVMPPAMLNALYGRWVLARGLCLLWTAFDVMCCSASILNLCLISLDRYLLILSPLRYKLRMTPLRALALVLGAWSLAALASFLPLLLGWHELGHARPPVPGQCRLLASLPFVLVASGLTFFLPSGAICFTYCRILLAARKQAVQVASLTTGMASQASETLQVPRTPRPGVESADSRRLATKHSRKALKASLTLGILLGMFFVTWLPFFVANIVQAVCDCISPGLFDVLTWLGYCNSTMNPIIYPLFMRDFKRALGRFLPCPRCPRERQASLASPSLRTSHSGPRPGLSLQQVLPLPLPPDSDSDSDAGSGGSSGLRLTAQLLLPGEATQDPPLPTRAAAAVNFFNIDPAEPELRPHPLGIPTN

This test concerns the target T1, 5HT6-human recombinant receptor (Homo sapiens, UniProt P50406).
T1 construct: purchased Receptor Biology; host or cells: HEK-293 cell membranes
In words: Binding to serotonin receptor 5-HT6 ([3H]-LSD radioligand). To be noted: membranes of HEK-293 cells expressing the receptor; [3H]-LSD 2.7 nM; 60 min at 37° C. On the procedure: Cell membranes of HEK-293 cells expressing the 5HT6-human recombinant receptor were supplied by Receptor Biology. In said membranes the receptor concentration is 2.18 pmol/mg protein and the protein concentration is 9.17 mg/ml. The experimental protocol follows the method of B. L. Roth et al. [B. L. Roth, S. C. Craigo, M. S. Choudhary, A. Uluer, F. J. Monsma, Y. Shen, H. Y. Meltzer, D. R. Sibley: Binding of Typical and Atypical Antipsychotic Agents to 5-Hydroxytryptamine-6 and Hydroxytryptamine-7 Receptors. The Journal of Pharmacology and Experimental Therapeutics, 1994, 268, 1403] with the following slight changes. The respective part of the literature description is hereby incorporated by reference and forms part of the disclosure.
The commercial membrane is diluted (1:40 dilution) with the binding buffer: 50 mM Tris-HCl, 10 mM MgCl2, 0.5 mM EDTA (pH 7.4). The radioligand used is [^3H]-LSD at a concentration of 2.7 nM with a final volume of 200 μl. Incubation is initiated by adding 100 μl of membrane suspension, (≈22.9 μg membrane protein), and is prolonged for 60 minutes at a temperature of 37° C. The incubation is ended by fast filtration in a Brandel Cell Harvester through fiber glass filters made by Schleicher & Schuell GF 3362 pretreated with a solution of polyethylenimine at 0.5%. The filters are washed three times with three milliliters of buffer Tris-HCl 50 mM pH 7.4. The filters are transferred to flasks and 5 ml of Ecoscint H liquid scintillation cocktail are added to each flask. The flasks are allowed to reach equilibrium for several hours before counting with a Wallac Winspectral 1414 scintillation counter. Non-specific binding is determined in the presence of 100 μM of serotonin. Tests were made in triplicate. The inhibition constants (Ki, nM) were calculated by non-linear regression analysis using the program EBDA/LIGAND described in Munson and Rodbard, Analytical Biochemistry, 1980, 107, 220, the respective part of which is hereby incorporated by reference and forms part of the disclosure.
The binding of the substituted indazolyl sulfonamide or 2,3-dihydro-indolyl sulfonamide compounds to the 5-HT6 receptor was determined as described above.
With `Cc1c(S(=O)(=O)Nc2ccc3cnn(CCN(C)C)c3c2)sc2ccc(Cl)cc12` [Example 2, 5-chloro-N-(1-(2-(dimethylamino)ethyl)-1H-indazol-6-yl)-3-methylbenzo[b]thiophene-2-sulfonamide], the Ki was determined as 16.4 nM.
Under `Cc1c(S(=O)(=O)Nc2ccc3[nH]nc(C4CCN(C)CC4)c3c2)sc2ccc(Cl)cc12` [Example 4, 5-chloro-3-methyl-benzo[b]thiophene-2-sulfonic acid [3-(1-methyl-piperidin-4-yl)-1H-indazol-5-yl]-amide] stands 121 nM; under `CN(C)CCn1ncc2ccc(NS(=O)(=O)c3ccc4ccccc4c3)cc21` [Example 1, N-(1-(2-(dimethylamino)ethyl)-1H-indazol-6-yl)napthalene-2-sulfonamide], 72.6 nM.
With `CN(C)CCN1CCc2ccc(NS(=O)(=O)c3c(Cl)nc4sccn34)cc21` [Example 9], the Ki is 15.8 nM.
